IC50 data for 14 molecules are collected here from patent US20050026994A1, “Use of 2, 4diamino-3-hydroxycarboxylic acid derivatives as proteasome inhibitors” (priority 2000, published 2005).

Structures are written as SMILES.

The target of the assay is T1, purified human placenta 20S proteasome (Homo sapiens, UniProt P28074).
T1 construct: purified human placenta 20S proteasome; tissue Diabetes Forschungsinstitut, Düsseldorf, Germany; host or cells: human placenta
The assay can be described thus: Inhibition of the chymotrypsin-like activity of the 20S proteasome (Suc-LLVY-AMC hydrolysis, fluorescence). Type of assay: biochemical. To be noted: substrate Suc-LLVY-AMC 80 μM, 60 min preincubation at room temperature, incubation 3-24 h at 37° C. As to the method:
It is based on the hydrolysis of the fluorogenic peptide Suc-LLVY-AMC (Succinyl-leucine-leucine-valine-tyrosine-7-amino-4-methylcoumarin), which is cleaved exclusively at the Y-AMC bond by the 20S proteasome. Hydrolysis of this peptide is accompanied by an increase in fluorescence intensity (λex355 nm, λem460 nm) due to release of the […] that accompanies diffusion apart of the hydrolysis product Suc-LLVY.
2 μl of a 1 mM solution of a test compound in DMSO (dimethylsulfoxide, 20 μM final concentration in the well) are preincubated for 60 min at room temperature in black 96-well microtiter plates together with a mixture of 1 μl purified human placenta 20S proteasome (Diabetes Forschungsinstitut, Düsseldorf, Germany; about 100 ng proteasome, depending on the proteasome preparation) and 47 μl buffer-Ca (5 mM CaCl2, 20 mM Trs/HCl (Tris(hydroxymethyl)-amino-methane hydrochloride) pH 8.0). 3 pd of a 2.67 mM solution of Suc-LLVY-AMC (Bachem, Switzerland) in DMSO (80 μM final concentration in the well) and 47 μl buffer-Ca are mixed and added. The resulting mixture is incubated for 3-24 h at 37° C. If desired, proteolysis of the substrate can be stopped by addition of 50 μl stop solution (100 mM monochloroacetic acid, 130 mM NaOH, 100 mM acetic acid, pH=4.3). The fluorescence is monitored with a FLUOROSKAN ASCENT™ microtiter plate reader.
To each measure series two control experiments have to be carried out • 1.) 0% value: 2 μl DMSO are used in the above described assay instead of 2 μl of a 1 mM solution of a test compound in DMSO and 48 μl buffer-Ca instead of a mixture of 47 μl buffer-Ca and 1 μl purified proteasome. • 2.) 100% value: in the above described assay 2 μl DMSO are used instead of 2 μl of a 1 mM solution of the test compound in DMSO. Calculation [formula]
The IC50 value is defined as that concentration of a compound at which the remaining activity is 50%.
For the molecule `COc1ccc(CN[C@@H](C(=O)N[C@H](C(=O)NCc2ccc(OC)cc2O)C(C)C)[C@@H](O)[C@H](Cc2ccccc2)NC(=O)[C@@H](NC(=O)OCC2CCCCC2)C(C)(C)C)cc1` [Example 15, {(S)-1-[(1S,2S,3R)-1-Benzyl-2-hydroxy-3-[(S)-1-(2-hydroxy-4-methoxy-benzylcarbamoyl)-2-methyl-propylcarbamoyl]-3-(4-methoxy-benzylamino)-propylcarbamoyl]-2,2-dimethyl-propyl}-carbamic acid cyclohexylmethyl ester], the IC50 is 1 µM.

For `COc1ccc(CNC(C(=O)NC(C(=O)NCc2ccc(OC)cc2O)C(C)C)C(O)C(Cc2ccccc2)NC(=O)C(NC(=O)OC(C)(C)C)C(C)(C)C)cc1` (centres unmarked) [Example 3, {1-[1-Benzyl-2-hydroxy-3-[1-(2-hydroxy-4-methoxy-benzylcarbamoyl)-2-methyl-propylcarbamoyl]-3-(4-methoxy-benzylamino)-propylcarbamoyl]-2,2-dimethyl-propyl}-carbamic acid tert-butyl ester], the midpoint of inhibition, the IC50, lay at 26 µM.

Consider `COc1ccc(CNC(C(=O)NC(C(=O)NCc2ccc(OC)cc2O)C(C)C)C(O)C(Cc2ccccc2)NC(=O)C(NC(=O)OCc2ccccc2)C(C)C)cc1` (centres unmarked) [Example 8, {1-[1-Benzyl-2-hydroxy-3-[1-(2-hydroxy-4-methoxy-benzylcarbamoyl)-2-methyl-propylcarbamoyl]-3-(4-methoxy-benzylamino)-propylcarbamoyl]-2-methyl-propyl}-carbamic acid benzyl ester], for which the IC50 was determined as 3.3 µM.

For the molecule `COc1ccc(CNC(C(=O)NC(C(=O)NCc2ccc(OC)cc2O)C(C)C)C(O)C(Cc2ccccc2)NC(=O)C(NC(=O)Cc2cccc3ccccc23)C(C)(C)C)cc1` (centres unmarked) [Example 10, 4-[3,3-Dimethyl-2-(2-naphthalen-1-yl-acetylamino)-butyrylamino]-3-hydroxy-2-(4-methoxy-benzylamino)-5-phenyl-pentanoic acid [1-(2-hydroxy-4-methoxy-benzyl-carbamoyl)-2-methyl-propyl]-amide], half-maximal inhibition (IC50) required 0.1 µM.

`COc1ccc(CN[C@@H](C(=O)N[C@H](C(=O)NCc2ccc(OC)cc2O)C(C)C)[C@@H](O)[C@H](Cc2ccccc2)NC(=O)[C@@H](NC(=O)OCc2ccccc2)C(C)(C)C)cc1` [Example 1] had an IC50 of 0.9 µM.

For `COC(=O)CCC(NC(=O)C(NCc1ccc(OC)cc1)C(O)C(Cc1ccccc1)NC(=O)C(NC(=O)OCc1ccccc1)C(C)C)C(=O)NCc1ccc(OC)cc1O` (centres unmarked) [Example 2, 4-[4-(2-Benzyloxycarbonylamino-3-methyl-butyrylamino)-3-hydroxy-2-(4-methoxy-benzylamino)-5-phenyl-pentanoylamino]-4-(2-hydroxy-4-methoxy-benzyl-carbomoyl)-butyric acid methyl ester], the IC50 was found to be 0.4 µM. Against the preceding molecule, the IC50 is about 2.2-fold lower.

For `COc1ccc(CNC(C(=O)NC(C(=O)NCc2ccc(OC)cc2O)C(C)C)C(O)C(Cc2ccccc2)NC(=O)C(NC(=O)OCc2cccc(C)c2)C(C)(C)C)cc1` (centres unmarked) [Example 11, {1-[1-Benzyl-2-hydroxy-3-[1-(2-hydroxy-4-methoxy-benzylcarbamoyl)-2-methyl-propylcarbamoyl]-3-(4-methoxy-benzylamino)-propylcarbamoyl]-2,2-dimethyl-propyl}-carbamic acid 3-methylbenzyl ester], the IC50 was 0.5 µM.

As for `COc1ccc(CNC(C(=O)NC(C(=O)NCc2ccc(OC)cc2O)C(C)C)C(O)C(Cc2ccccc2)NC(=O)C(NC(=O)OCc2cccc3ccccc23)C(C)(C)C)cc1` (centres unmarked) [Example 4, {1-[1-Benzyl-2-hydroxy-3-[1-(2-hydroxy-4-methoxy-benzyl-carbamoyl)-2-methyl-propylcarbamoyl]-3-(4-methoxy-benzylamino)-propylcarbamoyl]-2,2-dimethyl-propyl}-carbamic acid naphthalen-1-ylmethyl ester], the IC50 was determined as 2 µM.

`COc1ccc(CNC(C(=O)NC(C(=O)NCc2ccc(OC)cc2O)C(C)C)C(O)C(Cc2ccccc2)NC(=O)C(NC(=O)OCc2cccc(N)c2)C(C)(C)C)cc1` (centres unmarked) [Example 13, {1-[1-Benzyl-2-hydroxy-3-[1-(2-hydroxy-4-methoxy-benzylcarbamoyl)-2-meth-propylcarbamoyl]-3-(4-methoxy-benzylamino)-propylcarbamoyl]-2,2-dimethyl-propyl}-carbamic acid 3-amino-benzyl ester] yielded an IC50 of 0.6 µM. Compared with the last molecule, the IC50 is about 3.3-fold lower.

For `COc1ccc(CNC(C(=O)NC(C(=O)NCc2ccc(OC)cc2O)C(C)C)C(O)C(Cc2ccccc2)NC(=O)CNC(=O)OCc2ccccc2)cc1` (centres unmarked) [Example 7, {[1-Benzyl-2-hydroxy-3-[1-(2-hydroxy-4-methoxy-benzylcarbamoyl)-2-methyl-propylcarbamoyl]-3-(4-methoxy-benzylamino)-propylcarbamoyl]-methyl}-carbamic acid benzyl ester], the IC50 is 9 µM.

`COc1ccc(CNC(C(=O)NC(C(=O)NCc2ccc(OC)cc2O)C(C)C)C(O)C(Cc2ccccc2)NC(=O)C(NC(=O)OCc2cc(C)cc(C)c2)C(C)(C)C)cc1` (centres unmarked) [Example 14, {1-[1-Benzyl-2-hydroxy-3-[1-(2-hydroxy-4-methoxy-benzyl-carbamoyl)-2-methyl-propylcarbamoyl]-3-(4-methoxy-benzylamino)-propylcarbamoyl]-2,2-dimethyl-propyl}-carbamic acid 3,5-dimethyl-benzyl ester] showed an IC50 of 1.1 µM.

In turn, `COc1ccc(CNC(C(=O)NC(C(=O)NCc2ccc(OC)cc2O)C(C)C)C(O)C(Cc2ccccc2)NC(=O)C(NC(=O)CCc2cccc(N)c2)C(C)(C)C)cc1` (centres unmarked) [Example 12, 4-{2-[3-(3-Amino-phenyl)-propionylamino]-3,3-dimethyl-butyrylamino}-3-hydroxy-2-(4-methoxy-benzylamino)-5-phenyl-pentanoic acid [1-(2-hydroxy-4-methoxy-benzylcarbamoyl)-2-methyl-propyl]-amide] returned an IC50 of 0.6 µM.

Take `COc1ccc(CNC(C(=O)NC(C(=O)NCc2ccc(OC)cc2O)C(C)C)C(O)C(Cc2ccccc2)NC(=O)C(NC(=O)OCc2ccncc2)C(C)(C)C)cc1` (centres unmarked) [Example 6, {1-[1-Benzyl-2-hydroxy-3-[1-(2-hydroxy-4-methoxy-benzylcarbamoyl)-2-methyl-propylcarbamoyl]-3-(4-methoxy-benzylamino)-propylcarbamoyl]-2,2-dimethyl-propyl}-carbamic acid pyridin-4-ylmethyl ester]: the IC50 was determined as 2.2 µM. This IC50 is about 3.7-fold higher than that of the molecule before.

Molecule `COc1ccc(CNC(C(=O)NC(C(=O)NCc2ccc(OC)cc2O)C(C)C)C(O)C(Cc2ccccc2)NC(=O)C(NC(=O)OCc2ccc3ccccc3c2)C(C)(C)C)cc1` (centres unmarked) [Example 5, {1-[1-Benzyl-2-hydroxy-3-[1-(2-hydroxy-4-methoxy-benzylcarbamoyl)-2-methyl-propylcarbamoyl]-3-(4-methoxy-benzylamino)-propylcarbamoyl]-2,2-dimethyl-propyl}-carbamic acid naphthalen-2-ylmethyl ester] yielded an IC50 of 5.2 µM.
